Tests used:
[1] = test system: human adiponectin gene promoter; assay: Luciferase reporter screening assay in C2C12 cells stably expressing the adiponectin promoter construct; type: cell-based; settings: for concentration at which the greatest transactivation of the target promoter was obtained (maximum activity): stable C2C12 adiponectin promoter-luciferase line, commercial activator (positive control), luciferase read 48 hours after stimulation
Experimental: To determine the luciferase activity, between 50000 and […] cells were seeded in each well and in a P24 plate in duplicate. After approximately 24 hours, the medium was removed from the cells and each well was washed with PBS 1x (because DMEM interferes in the measurement of the reporter gene activity). 100 µl of luciferase developing agent (Bright-GloTM Luciferase Assay system- Promega) were then added to each well. This reagent carries the reporter gene substrate and luminescence is generated as a product of the enzymatic reaction. […] To record the measurement of luciferase activity, the plate was shaken for 30 seconds right after adding the developing reagent and after 2 minutes, the volume was collected and transferred to a 96-well plate (P96), which was read in an illuminometer using the program with a duration of 5 seconds and the arbitrary luminescence units were recorded for each obtained clone or, in other words, for each stable cell line.
For the screening, 30000 cells per well were seeded in white P96 plates because these plates allow amplifying the luminescence signal and improving the reading. The cells were grown in 100 µl of hygromycin-free medium.
The cells were stimulated with the extracts 24 hours after the seeding in the following conditions: • cells to which only complete medium had been added (baseline transcription), • cells to which medium had been added in which the extracts to be assayed are dissolved (vehicle), • cells to which a known commercial activator of the target promoter had been added, thus having a positive control of the transcriptional activation and of the screening protocol and which are useful as a reference when screening those positive extracts increasing the activity of the promoters to be studied, because they provide an activation ratio which is calculated as follows: by dividing the average luminescence signal increase in the presence of the commercial activator by the average luminescence signal provided by the baseline activity of the target promoter in the presence of the vehicle. […]
The luciferase activity directed by the target promoters was developed 48 hours after the stimulation with the extracts, according to the protocol described in example 4, but modified such that once the medium was removed from the cells and they were washed with PBS 1x, 40 µl of luciferase developing reagent were added to each well and the plate was read after 2 minutes.
Luminescence values measured in RLUs (Relative Luciferase Units) obtained in the presence of each of the marine extracts which have been assayed were then plotted against the average luminescence signal obtained in baseline conditions (in the presence of the vehicle). […]

C2C12 cells = assay: Toxicity of the commercial activators for the cells in the screening assay; type: cell-based, Mus musculus

| SMILES | potency in the screening assays (comparison in words) ([1]; comparison of commercial activators of the adiponectin promoter) | concentration at which the greatest transactivation of the target promoter was obtained (maximum activity) [1] [µM] | toxicity for the cells (comparison in words) (C2C12 cells) |
| --- | --- | --- | --- |
| O=c1c(-c2ccc(O)cc2)coc2cc(O)ccc12 [daidzein] | more potent than RGZ | 20 | less toxic for the cells than Genistein |
| O=c1c(-c2ccc(O)cc2)coc2cc(O)cc(O)c12 [genistein] |  | 20 |  |
| CN(CCOc1ccc(CC2SC(=O)NC2=O)cc1)c1ccccn1 (centres unmarked) [rosiglitazone] |  | 20 |  |
